What was measured:
[1] = tested on: CEM/VM-1-5 cells (MDR+); experiment: cells; format: cell-based, human; details: for IC50: Homo sapiens, read-out: IC50 CEM/VM-1-5 (MDR + HTL), CEM/VM-1-5, MTT; for Degree of resistance (CEM/VM-1-5): IC50 of the resistant line divided by IC50 of sensitive CEM cells
Source text: A second evaluation of the cytotoxicity of the acid labile, lipophilic molecular conjugates was undertaken. […]
The second set of cells tested, CCRF-CEM or simply CEM, were derived from the blood of a patient with acute lymphoblastic leukemia. G. E. Foley, H. Lazarus, S. Farber, B. G. Uzman, B. A. Boone, and R E. McCarthy. Continuous culture of human lymphoblasts from peripheral blood of a child with acute leukemia. Cancer 18: 522-529 (1965). The subline CEM/VLB100 was developed to be resistant to up to vinblastine at 100 ng/ml. W. T. Beck, T. J. Mueller, and L. R. Tanzer. Altered surface membrane glycoproteins in Vinca alkaloid-resistant human leukemic lymphoblasts. Cancer Research 39: 2070-2076 (1979). Drug resistance is achieved by overexpression of the MDR1 gene. Resistance in the CEM subline designated CEM/VM-1-5, however, is “atypical.” M. K. Danks, J. C. Yalowich, and W. T. Beck. Atypical multiple drug resistance in a human leukemic cell line selected for resistance to teniposide (VM-26). Cancer Research 47: 1297-1301 (1987). The classes of drugs included in the “classic” multiple drug resistance phenotype are Vinca alkaloids, anthracyclines, epipodophyllotoxins and antibiotics. However, CEM/VM-1-5 cells retain sensitivity to the Vinca alkaloids despite resistance and cross-resistance to etoposide, anthracyclines and mitoxantrone. Danks, M. K.; Schmidt, C. A.; Cirtain, M. C.; Suttle, D. P.; Beck, W. T., Altered catalytic activity of and DNA cleavage by DNA topoisomerase II from human leukemic cells selected for resistance to VM-26. Biochemistry 1988, 27, 8861-8869. Resistance in CEM/VM-1-5 cells is effected by over expression of the […]. CEM, CEM/VLB100 and CEM/VM-1-5 cells were obtained from Dr. WT Beck, University of Illinois at Chicago.

[2] = Stability in human plasma at 37° C.; format: in vitro ADME
Description: The stability of the acid labile, lipophilic molecular conjugates to hydrolysis in plasma was evaluated to determine their potential to release the active cancer chemotherapeutic agents into systemic circulation and thereby cause general off target toxicity (“side effects”). The conjugates were incubated with plasma of mouse, rat and human origin.
HPLC grade Methanol from Fisher (Fair lawn, NJ, USA). Part No: A452-4 (074833). HPLC grade Water from Fisher (Fair lawn, NJ, USA). Part No: W5-4 (073352). Drug-free mouse, rat and human plasmas were purchased from Innovative Research Inc. (Southfield, Mich., USA). LIPOSYN® I.V. (30% soybean oil and egg yolk phospholipids, Abbott Laboratories) Fat Emulsion from Hospira, Inc. (Lake Forest, Ill.).
Each drug (ART 198, ART 273, ART 488 and ART 489) was prepared in triplicate in mouse, rat and human plasma individually at […] concentration and vortexed for 1 minute and placed in a water bath at 37° C. at a shake rate of 75 per minute. Samples were drawn at time points of 0, 15, 30, 45, 60, 75, 90, 105, 120, 135, 150, 165, 180, 210, 240, 300, 360 and 480 minutes.
Chromatographic separation of the compounds was performed on a Waters Acquity UPLC™ using a BEH C18 column (1.7 μm, 2.1×50 mm). The mobile phase consisted of Methanol: 0.1% Formic acid (80:20). The flow rate was 0.3 ml/min; the sample injection volume was 5 μL, resulting in a 3 minute run time.
The MS instrumentation consisted of a Waters Micromass Quattro Micro™ triple-quadrupole system (Manchester, UK). The MS system was controlled by a 4.0 version of MassLynx software. Ionization was performed in the positive electrospray ionization mode. MS/MS conditions were the following: capillary voltage 3.02 kV; cone voltage 50 v; extractor voltage 5 v; and RF lens voltage 0.5 v. The source and desolvation temperatures were 100° C. and 400° C. respectively, and the desolvation and cone gas flow were 400 and 30 L/hr, respectively.
The selected mass-to-charge (m/z) ratio transitions of the ART 198 used in the selected ion monitoring (SIM) were: for ART 198, 617 (M+K)^+, for ART 273, 589 (M+K)^+, for ART 488, 913 (M+Na)^+, and for ART 489, 957 (M+Na)^+. The dwell time was set at 200 msec. MS conditions were optimized using direct infusion of standard solutions prepared in methanol and delivered by a syringe pump at a flow rate of 20 μL/min.
Samples of 100 μL were collected at time points of 0, 15, 30, 45, 60, 75, 90, 105, 120, 135, 150, 165, 180, 210, 240, 300, 360 and 480 minutes respectively and the reaction was terminated with methanol. In a separate set of experiments the acid labile, lipophilic molecular conjugates were dissolved in a small amount of ethanol and diluted into a lipid emulsion (Liposyn®) and added to mouse and human plasma before incubation and the hydrolysis of the conjugates was similarly measured. Collected plasma samples of 100 μL containing drug were placed in separate Eppendorf micro centrifuge tubes for processing. Methanol (200 μL) was added to extract the drug using the protein precipitation technique. The micro tubes were then vortex mixed for 10 minutes and centrifuged for 15 minutes at a speed of 10,000 rpm (Eppendorf 5415C centrifuge). The supernatant was collected and filtered using a 0.45 μm filter (Waters 13 mm GHP 0.45 μm) before analysis.
The weighted linear least-squares (1/x) regression was used as the mathematical model. The coefficient (r) for the compounds ranged from 0.9925 to 0.9999. The calibration range was selected according to the concentrations anticipated in the samples to be determined.
Samples were collected at various times and the percent remaining of the acid labile, lipophilic molecular conjugate of the cancer chemotherapeutic agent was determined along with the percent of the chemotherapeutic agent released from the hydrolysis of the conjugate.

COC(=O)[C@@]12OC[C@]34[C@H]([C@@H](O)[C@@H]1O)[C@@]1(C)CC(=O)C(O)=C(C)[C@@H]1C[C@H]3OC(=O)C(OC(=O)CC1(O)CCCCC1)[C@@H]24 (stereo partly drawn) [ART 198]
IC50 [1]: 308 ± 10 nM
Degree of resistance (CEM/VM-1-5) [1]: 3 ± 1
percent remaining of initial drug ([2]; 0 min): 100%
percent remaining of initial drug ([2]; 15 min): 99.3%
percent remaining of initial drug ([2]; 30 min): 99.1%
percent remaining of initial drug ([2]; 45 min): 94.9%
percent remaining of initial drug ([2]; 60 min): 94.6%
percent remaining of initial drug ([2]; 75 min): 93.1%
percent remaining of initial drug ([2]; 90 min): 89.9%
percent remaining of initial drug ([2]; 105 min): 87.0%
percent remaining of initial drug ([2]; 120 min): 68.5%
percent remaining of initial drug ([2]; 135 min): 66.4%
percent remaining of initial drug ([2]; 150 min): 61.1%
percent remaining of initial drug ([2]; 165 min): 59.6%
percent remaining of initial drug ([2]; 180 min): 48.6%
percent remaining of initial drug ([2]; 210 min): 47.6%
percent remaining of initial drug ([2]; 240 min): 46.0%
percent remaining of initial drug ([2]; 300 min): 44.4%
percent remaining of initial drug ([2]; 360 min): 39.6%
percent remaining of initial drug ([2]; 480 min): 34.2%

CCCCCCCCCCCCCCCC1OCC(COC(=O)O[C@@H]2C(=O)C=C(C)[C@@H]3C[C@H]4OC(=O)C(OC(=O)CC(O)(C(C)C)C(C)C)C5[C@@H](C)[C@@H](O)[C@@]6(O)OC[C@@]54C6[C@@]23C)O1 (stereo partly drawn) [ART 488]
IC50 [1]: 8 ± 4 nM
Degree of resistance (CEM/VM-1-5) [1]: 2 ± 1
percent remaining of initial drug ([2]; 0 min): 100%
percent remaining of initial drug ([2]; 15 min): 90.8%
percent remaining of initial drug ([2]; 30 min): 89.1%
percent remaining of initial drug ([2]; 45 min): 87.8%
percent remaining of initial drug ([2]; 60 min): 87.9%
percent remaining of initial drug ([2]; 75 min): 87.9%
percent remaining of initial drug ([2]; 90 min): 87.1%
percent remaining of initial drug ([2]; 105 min): 86.2%
percent remaining of initial drug ([2]; 120 min): 85.3%
percent remaining of initial drug ([2]; 135 min): 84.0%
percent remaining of initial drug ([2]; 150 min): 82.7%
percent remaining of initial drug ([2]; 165 min): 81.1%
percent remaining of initial drug ([2]; 180 min): 78.6%
percent remaining of initial drug ([2]; 210 min): 78.1%
percent remaining of initial drug ([2]; 240 min): 76.5%
percent remaining of initial drug ([2]; 300 min): 59.3%
percent remaining of initial drug ([2]; 360 min): 59.8%
percent remaining of initial drug ([2]; 480 min): 43.6%

CCCCCCCCCCCCCCCC1OCC(COC(=O)OC2=C(C)[C@@H]3C[C@H]4OC(=O)C(OC(=O)CC5(O)CCCCC5)[C@H]5[C@]6(C(=O)OC)OC[C@]45[C@H]([C@@H](O)[C@@H]6O)[C@@]3(C)CC2=O)O1 (stereo partly drawn) [ART 489]
IC50 [1]: 24 ± 4 nM
Degree of resistance (CEM/VM-1-5) [1]: 1.2 ± 0.07
percent remaining of initial drug ([2]; 0 min): 100%
percent remaining of initial drug ([2]; 15 min): 99.3%
percent remaining of initial drug ([2]; 30 min): 98.8%
percent remaining of initial drug ([2]; 45 min): 98.4%
percent remaining of initial drug ([2]; 60 min): 97.4%
percent remaining of initial drug ([2]; 75 min): 94.6%
percent remaining of initial drug ([2]; 90 min): 93.7%
percent remaining of initial drug ([2]; 105 min): 93.0%
percent remaining of initial drug ([2]; 120 min): 91.9%
percent remaining of initial drug ([2]; 135 min): 91.7%
percent remaining of initial drug ([2]; 150 min): 90.9%
percent remaining of initial drug ([2]; 165 min): 90.4%
percent remaining of initial drug ([2]; 180 min): 90.1%
percent remaining of initial drug ([2]; 210 min): 89.0%
percent remaining of initial drug ([2]; 240 min): 86.7%
percent remaining of initial drug ([2]; 300 min): 84.1%
percent remaining of initial drug ([2]; 360 min): 78.7%
percent remaining of initial drug ([2]; 480 min): 65.9%

— patent publication US10172957B2, “Acid-labile lipophilic prodrugs of cancer chemotherapeutic agents” (priority 2011, dated 2019)
